Experimental data published in patent US7972859B2, “Authentication of ingestible products using saccharides as markers” (Authentix, Inc., priority 2006, dated 2011).
Read-outs that look alike come from different tables or passages of the source.

Experiments:
[1] = target: Maltose binding protein (Escherichia coli, UniProt P0AEX9); settings: cited from earlier work
[2] = target: T1, MBP (Escherichia coli, UniProt P0AEX9); assay: inhibition of amylose-MBP binding by maltose (ELISA); design: 6xHis (C); made in house; host or cells: E. coli BL-21 (DE3); species or system E. coli
[3] = target: T1, MBP
Protocol: TMB (3,3′,5,5′ tetramethylbenzidine) is a chromogen that yields a blue color when oxidized with hydrogen peroxide (catalyzed by HRP) with major absorbances at 370 nm and 652 nm. Adding sulfuric or phosphoric acid to stop the reaction changes the product to yellow that absorbs at 450 nm and provides greater sensitivity than the blue product.
For any test samples outside of such a range, dilution with a buffered solution is carried out.

Which results are given for `OC[C@H]1O[C@H](O[C@H]2[C@H](O)[C@@H](O)[C@H](O)O[C@@H]2CO)[C@H](O)[C@@H](O)[C@@H]1O` [maltose]?
saturated at (level) ([1]; saturation of maltose binding protein, as ppb): about 400 ppb; saturated at (concentration) ([1]; saturation of maltose binding protein): about 10 μM; interference with binding of MBP with amylose ([2]; 50 μM maltose): 90%; inhibition at 5000 µM ([2]; read-out: inhibition of binding of MBP to amylose): 95%

With maltotriose as the molecule, how does the Kd ([1]; Kd expressed as ppb) read?
Its Kd is “about 120 ppb”.

For amylose, which “Absorbance at 450 nm” value ([3]; Na2CO3 buffer pH 8.3, listed as level 0.0001 (unit not given)) is on record?
The value was 0.215.

And the “Absorbance at 450 nm” value ([3]; Na2CO3 buffer pH 8.3, listed as level 0.0002 (unit not given))?
The value was 0.181.

What about the “Absorbance at 450 nm” value ([3]; Na2CO3 buffer pH 8.3, listed as level 0.0005 (unit not given)) of the same molecule?
Its value is 0.233.

And the “Absorbance at 450 nm” value ([3]; Na2CO3 buffer pH 8.3, listed as level 0.001 (unit not given))?
The value was 0.216.

What about the “Absorbance at 450 nm” value ([3]; Na2CO3 buffer pH 8.3, listed as level 0.01 (unit not given)) of the same molecule?
Its value is 0.440.

What about the “Absorbance at 450 nm” value ([3]; Na2CO3 buffer pH 8.3, listed as level 0.1 (unit not given)) of the same molecule?
Its value is 0.870.

And the “Absorbance at 450 nm” value ([3]; Na2CO3 buffer pH 8.3, listed as level 1 (unit not given))?
Its value is 0.748.

What about the “Absorbance at 450 nm” value ([3]; Na2CO3 buffer pH 8.9, listed as level 0.0001 (unit not given)) of the same molecule?
Its value is 0.215.

And the “Absorbance at 450 nm” value ([3]; Na2CO3 buffer pH 8.9, listed as level 0.0002 (unit not given))?
Its value is 0.170.

What about the “Absorbance at 450 nm” value ([3]; Na2CO3 buffer pH 8.9, listed as level 0.0005 (unit not given)) of the same molecule?
The value was 0.175.

And the “Absorbance at 450 nm” value ([3]; Na2CO3 buffer pH 8.9, listed as level 0.001 (unit not given))?
The value was 0.248.

What about the “Absorbance at 450 nm” value ([3]; Na2CO3 buffer pH 8.9, listed as level 0.01 (unit not given)) of the same molecule?
The value was 0.502.

And the “Absorbance at 450 nm” value ([3]; Na2CO3 buffer pH 8.9, listed as level 0.1 (unit not given))?
Its value is 0.847.

What about the “Absorbance at 450 nm” value ([3]; Na2CO3 buffer pH 8.9, listed as level 1 (unit not given)) of the same molecule?
The value was 0.787.

What about the “Absorbance at 450 nm” value ([3]; Na2CO3 buffer pH 9.3, listed as level 0.0001 (unit not given)) of the same molecule?
The value was 0.196.

And the “Absorbance at 450 nm” value ([3]; Na2CO3 buffer pH 9.3, listed as level 0.0002 (unit not given))?
The value was 0.169.

What about the “Absorbance at 450 nm” value ([3]; Na2CO3 buffer pH 9.3, listed as level 0.0005 (unit not given)) of the same molecule?
The value was 0.152.

And the “Absorbance at 450 nm” value ([3]; Na2CO3 buffer pH 9.3, listed as level 0.001 (unit not given))?
The value was 0.179.

And the “Absorbance at 450 nm” value ([3]; Na2CO3 buffer pH 9.3, listed as level 0.01 (unit not given))?
Its value is 0.438.

And the “Absorbance at 450 nm” value ([3]; Na2CO3 buffer pH 9.3, listed as level 0.1 (unit not given))?
The value was 0.828.

What about the “Absorbance at 450 nm” value ([3]; Na2CO3 buffer pH 9.3, listed as level 1 (unit not given)) of the same molecule?
Its value is 0.788.

What about the “Absorbance at 450 nm” value ([3]; Na2CO3 buffer pH 9.9, listed as level 0.0001 (unit not given)) of the same molecule?
The value was 0.235.

And the “Absorbance at 450 nm” value ([3]; Na2CO3 buffer pH 9.9, listed as level 0.0002 (unit not given))?
The value was 0.182.

And the “Absorbance at 450 nm” value ([3]; Na2CO3 buffer pH 9.9, listed as level 0.0005 (unit not given))?
Its value is 0.192.

And the “Absorbance at 450 nm” value ([3]; Na2CO3 buffer pH 9.9, listed as level 0.001 (unit not given))?
Its value is 0.241.

What about the “Absorbance at 450 nm” value ([3]; Na2CO3 buffer pH 9.9, listed as level 0.01 (unit not given)) of the same molecule?
The value was 0.452.

What about the “Absorbance at 450 nm” value ([3]; Na2CO3 buffer pH 9.9, listed as level 0.1 (unit not given)) of the same molecule?
Its value is 0.849.

What about the “Absorbance at 450 nm” value ([3]; Na2CO3 buffer pH 9.9, listed as level 1 (unit not given)) of the same molecule?
The value was 0.868.

What about the “Absorbance at 450 nm” value ([3]; Na2CO3 buffer pH 10, listed as level 0.0001 (unit not given)) of the same molecule?
Its value is 0.237.

And the “Absorbance at 450 nm” value ([3]; Na2CO3 buffer pH 10, listed as level 0.0002 (unit not given))?
The value was 0.224.

What about the “Absorbance at 450 nm” value ([3]; Na2CO3 buffer pH 10, listed as level 0.0005 (unit not given)) of the same molecule?
The value was 0.183.

And the “Absorbance at 450 nm” value ([3]; Na2CO3 buffer pH 10, listed as level 0.001 (unit not given))?
The value was 0.160.

What about the “Absorbance at 450 nm” value ([3]; Na2CO3 buffer pH 10, listed as level 0.01 (unit not given)) of the same molecule?
The value was 0.432.

What about the “Absorbance at 450 nm” value ([3]; Na2CO3 buffer pH 10, listed as level 0.1 (unit not given)) of the same molecule?
The value was 0.793.

And the “Absorbance at 450 nm” value ([3]; Na2CO3 buffer pH 10, listed as level 1 (unit not given))?
Its value is 0.918.

And the “Absorbance at 450 nm” value ([3]; Na2CO3 buffer pH 11, listed as level 0.0001 (unit not given))?
Its value is 0.185.

What about the “Absorbance at 450 nm” value ([3]; Na2CO3 buffer pH 11, listed as level 0.0002 (unit not given)) of the same molecule?
Its value is 0.183.

What about the “Absorbance at 450 nm” value ([3]; Na2CO3 buffer pH 11, listed as level 0.0005 (unit not given)) of the same molecule?
Its value is 0.215.

And the “Absorbance at 450 nm” value ([3]; Na2CO3 buffer pH 11, listed as level 0.001 (unit not given))?
The value was 0.193.

What about the “Absorbance at 450 nm” value ([3]; Na2CO3 buffer pH 11, listed as level 0.01 (unit not given)) of the same molecule?
Its value is 0.512.

What about the “Absorbance at 450 nm” value ([3]; Na2CO3 buffer pH 11, listed as level 0.1 (unit not given)) of the same molecule?
Its value is 0.845.

And the “Absorbance at 450 nm” value ([3]; Na2CO3 buffer pH 11, listed as level 1 (unit not given))?
Its value is 0.908.

And the “Absorbance at 450 nm” value ([3]; NaHCO3 buffer pH 5.7, listed as level 0.0001 (unit not given))?
Its value is 0.297.

And the “Absorbance at 450 nm” value ([3]; NaHCO3 buffer pH 5.7, listed as level 0.0002 (unit not given))?
Its value is 0.264.

And the “Absorbance at 450 nm” value ([3]; NaHCO3 buffer pH 5.7, listed as level 0.0005 (unit not given))?
Its value is 0.314.

And the “Absorbance at 450 nm” value ([3]; NaHCO3 buffer pH 5.7, listed as level 0.001 (unit not given))?
The value was 0.238.

And the “Absorbance at 450 nm” value ([3]; NaHCO3 buffer pH 5.7, listed as level 0.01 (unit not given))?
The value was 0.465.

What about the “Absorbance at 450 nm” value ([3]; NaHCO3 buffer pH 5.7, listed as level 0.1 (unit not given)) of the same molecule?
The value was 0.861.

And the “Absorbance at 450 nm” value ([3]; NaHCO3 buffer pH 5.7, listed as level 1 (unit not given))?
The value was 0.815.

What about the “Absorbance at 450 nm” value ([3]; NaHCO3 buffer pH 6.3, listed as level 0.0001 (unit not given)) of the same molecule?
The value was 0.243.

What about the “Absorbance at 450 nm” value ([3]; NaHCO3 buffer pH 6.3, listed as level 0.0002 (unit not given)) of the same molecule?
The value was 0.192.

What about the “Absorbance at 450 nm” value ([3]; NaHCO3 buffer pH 6.3, listed as level 0.0005 (unit not given)) of the same molecule?
The value was 0.271.

And the “Absorbance at 450 nm” value ([3]; NaHCO3 buffer pH 6.3, listed as level 0.001 (unit not given))?
Its value is 0.219.

What about the “Absorbance at 450 nm” value ([3]; NaHCO3 buffer pH 6.3, listed as level 0.01 (unit not given)) of the same molecule?
Its value is 0.392.

What about the “Absorbance at 450 nm” value ([3]; NaHCO3 buffer pH 6.3, listed as level 0.1 (unit not given)) of the same molecule?
Its value is 0.879.

And the “Absorbance at 450 nm” value ([3]; NaHCO3 buffer pH 6.3, listed as level 1 (unit not given))?
The value was 0.826.

And the “Absorbance at 450 nm” value ([3]; NaHCO3 buffer pH 6.9, listed as level 0.0001 (unit not given))?
Its value is 0.199.

What about the “Absorbance at 450 nm” value ([3]; NaHCO3 buffer pH 6.9, listed as level 0.0002 (unit not given)) of the same molecule?
Its value is 0.154.

What about the “Absorbance at 450 nm” value ([3]; NaHCO3 buffer pH 6.9, listed as level 0.0005 (unit not given)) of the same molecule?
The value was 0.234.

What about the “Absorbance at 450 nm” value ([3]; NaHCO3 buffer pH 6.9, listed as level 0.001 (unit not given)) of the same molecule?
Its value is 0.140.

And the “Absorbance at 450 nm” value ([3]; NaHCO3 buffer pH 6.9, listed as level 0.01 (unit not given))?
Its value is 0.397.

What about the “Absorbance at 450 nm” value ([3]; NaHCO3 buffer pH 6.9, listed as level 0.1 (unit not given)) of the same molecule?
The value was 0.896.

What about the “Absorbance at 450 nm” value ([3]; NaHCO3 buffer pH 6.9, listed as level 1 (unit not given)) of the same molecule?
Its value is 0.853.

And the “Absorbance at 450 nm” value ([3]; NaHCO3 buffer pH 7.1, listed as level 0.0001 (unit not given))?
The value was 0.217.

What about the “Absorbance at 450 nm” value ([3]; NaHCO3 buffer pH 7.1, listed as level 0.0002 (unit not given)) of the same molecule?
The value was 0.195.

What about the “Absorbance at 450 nm” value ([3]; NaHCO3 buffer pH 7.1, listed as level 0.0005 (unit not given)) of the same molecule?
Its value is 0.200.

And the “Absorbance at 450 nm” value ([3]; NaHCO3 buffer pH 7.1, listed as level 0.001 (unit not given))?
Its value is 0.159.

And the “Absorbance at 450 nm” value ([3]; NaHCO3 buffer pH 7.1, listed as level 0.01 (unit not given))?
The value was 0.366.

What about the “Absorbance at 450 nm” value ([3]; NaHCO3 buffer pH 7.1, listed as level 0.1 (unit not given)) of the same molecule?
The value was 0.855.

What about the “Absorbance at 450 nm” value ([3]; NaHCO3 buffer pH 7.1, listed as level 1 (unit not given)) of the same molecule?
The value was 0.849.

And the “Absorbance at 450 nm” value ([3]; NaHCO3 buffer pH 7.7, listed as level 0.0001 (unit not given))?
Its value is 0.242.

And the “Absorbance at 450 nm” value ([3]; NaHCO3 buffer pH 7.7, listed as level 0.0002 (unit not given))?
The value was 0.208.

What about the “Absorbance at 450 nm” value ([3]; NaHCO3 buffer pH 7.7, listed as level 0.0005 (unit not given)) of the same molecule?
Its value is 0.187.

And the “Absorbance at 450 nm” value ([3]; NaHCO3 buffer pH 7.7, listed as level 0.001 (unit not given))?
The value was 0.254.

What about the “Absorbance at 450 nm” value ([3]; NaHCO3 buffer pH 7.7, listed as level 0.01 (unit not given)) of the same molecule?
Its value is 0.387.

What about the “Absorbance at 450 nm” value ([3]; NaHCO3 buffer pH 7.7, listed as level 0.1 (unit not given)) of the same molecule?
Its value is 0.817.

What about the “Absorbance at 450 nm” value ([3]; NaHCO3 buffer pH 7.7, listed as level 1 (unit not given)) of the same molecule?
Its value is 0.809.
